Data: patent US11767310B2, “Nicotinamide RIPK1 inhibitors” (AbbVie Inc., priority 2021, dated 2023)
Like-named read-outs stand apart in the source and are kept apart here.

Experiments:
Assay in all cases: Kinase binding screen
Conditions in all cases: read-out: Percent Control at 100 nM Compound Concentration
[1] = biological target: ABL1(H396P)-nonphosphorylated (Homo sapiens (Human), UniProt P00519, H396P)
[2] = biological target: ABL1(T315I)-phosphorylated (Homo sapiens (Human), UniProt P00519, T315I)
[3] = biological target: ABL1-nonphosphorylated (Homo sapiens (Human), UniProt P00519)
[4] = biological target: CAMK1D (Homo sapiens (Human), UniProt Q8IU85)
[5] = biological target: CAMK2G (Homo sapiens (Human), UniProt Q13555)
[6] = biological target: CAMKK2 (Homo sapiens (Human), UniProt Q96RR4)
[7] = biological target: CSNK1A1 (Homo sapiens (Human), UniProt P48729)
[8] = biological target: EGFR(G719S) (Homo sapiens (Human), UniProt P00533, G719S)
[9] = biological target: EPHA8 (Homo sapiens (Human), UniProt P29322)
[10] = biological target: EPHB3 (Homo sapiens (Human), UniProt P54753)
[11] = biological target: FGFR3 (Homo sapiens (Human), UniProt P22607)
[12] = biological target: GRK1 (Homo sapiens (Human), UniProt Q15835)
[13] = biological target: GRK7 (Homo sapiens (Human), UniProt Q8WTQ7)
[14] = biological target: IGFIR (Homo sapiens (Human), UniProt P08069)
[15] = biological target: KIT-autoinhibited (Homo sapiens (Human), UniProt P10721)
[16] = biological target: LIMK1 (Homo sapiens (Human), UniProt P53667)
[17] = biological target: LYN (Homo sapiens (Human), UniProt P07948)
[18] = biological target: MINK (Homo sapiens (Human), UniProt Q8N4C8)
[19] = biological target: MKNK1 (Homo sapiens (Human), UniProt Q9BUB5)
[20] = biological target: MLK2 (Homo sapiens (Human), UniProt Q02779)
[21] = biological target: MYLK2 (Homo sapiens (Human), UniProt Q9H1R3)
[22] = biological target: PKN2 (Homo sapiens (Human), UniProt Q16513)
[23] = biological target: RIPK5 (Homo sapiens (Human), UniProt Q6XUX3)
[24] = biological target: ROCK2 (Homo sapiens (Human), UniProt O75116)
[25] = biological target: STK33 (Homo sapiens (Human), UniProt Q9BYT3)
[26] = biological target: TNNI3K (Homo sapiens (Human), UniProt Q59H18)
[27] = biological target: TTK (Homo sapiens (Human), UniProt P33981)
[28] = biological target: ULK3 (Homo sapiens (Human), UniProt Q6PHR2)
[29] = biological target: ZAP70 (Homo sapiens (Human), UniProt P43403)

Sequence of ROCK2 (O75116 whole entry): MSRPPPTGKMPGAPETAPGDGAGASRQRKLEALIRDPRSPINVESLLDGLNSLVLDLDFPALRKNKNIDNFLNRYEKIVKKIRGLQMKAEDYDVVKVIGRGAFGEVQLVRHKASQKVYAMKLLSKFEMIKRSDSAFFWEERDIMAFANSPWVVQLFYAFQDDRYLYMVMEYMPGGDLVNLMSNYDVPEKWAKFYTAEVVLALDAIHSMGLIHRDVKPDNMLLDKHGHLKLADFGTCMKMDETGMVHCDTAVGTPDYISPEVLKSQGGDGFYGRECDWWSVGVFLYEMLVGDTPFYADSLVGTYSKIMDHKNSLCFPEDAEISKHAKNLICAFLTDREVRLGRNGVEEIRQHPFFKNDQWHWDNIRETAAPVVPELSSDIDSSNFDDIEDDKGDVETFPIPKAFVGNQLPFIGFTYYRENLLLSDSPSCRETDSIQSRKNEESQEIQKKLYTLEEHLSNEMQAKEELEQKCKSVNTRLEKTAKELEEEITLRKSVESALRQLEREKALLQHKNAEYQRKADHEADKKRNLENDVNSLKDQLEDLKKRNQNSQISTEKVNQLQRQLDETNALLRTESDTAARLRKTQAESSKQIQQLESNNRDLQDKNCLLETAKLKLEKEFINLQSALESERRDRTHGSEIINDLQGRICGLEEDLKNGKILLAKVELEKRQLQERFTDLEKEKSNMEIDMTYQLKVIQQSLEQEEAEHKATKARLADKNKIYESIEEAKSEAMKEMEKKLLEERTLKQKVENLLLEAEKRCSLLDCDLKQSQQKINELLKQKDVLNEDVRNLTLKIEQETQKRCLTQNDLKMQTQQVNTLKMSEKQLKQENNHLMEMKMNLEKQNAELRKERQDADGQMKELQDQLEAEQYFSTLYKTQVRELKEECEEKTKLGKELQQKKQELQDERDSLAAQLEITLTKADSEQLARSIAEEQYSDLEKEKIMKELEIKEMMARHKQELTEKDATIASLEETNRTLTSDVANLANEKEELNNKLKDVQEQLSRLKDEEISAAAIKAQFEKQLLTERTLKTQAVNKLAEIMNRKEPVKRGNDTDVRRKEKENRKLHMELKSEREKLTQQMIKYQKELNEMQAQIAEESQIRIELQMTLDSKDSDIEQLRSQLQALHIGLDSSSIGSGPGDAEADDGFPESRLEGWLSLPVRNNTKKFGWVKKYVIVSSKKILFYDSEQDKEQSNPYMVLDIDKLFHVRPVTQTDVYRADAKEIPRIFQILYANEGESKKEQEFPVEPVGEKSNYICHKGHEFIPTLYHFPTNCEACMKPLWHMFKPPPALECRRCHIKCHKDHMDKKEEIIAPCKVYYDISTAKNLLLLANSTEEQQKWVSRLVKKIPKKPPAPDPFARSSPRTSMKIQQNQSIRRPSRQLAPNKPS
Sequence of GRK7 (Q8WTQ7 whole entry): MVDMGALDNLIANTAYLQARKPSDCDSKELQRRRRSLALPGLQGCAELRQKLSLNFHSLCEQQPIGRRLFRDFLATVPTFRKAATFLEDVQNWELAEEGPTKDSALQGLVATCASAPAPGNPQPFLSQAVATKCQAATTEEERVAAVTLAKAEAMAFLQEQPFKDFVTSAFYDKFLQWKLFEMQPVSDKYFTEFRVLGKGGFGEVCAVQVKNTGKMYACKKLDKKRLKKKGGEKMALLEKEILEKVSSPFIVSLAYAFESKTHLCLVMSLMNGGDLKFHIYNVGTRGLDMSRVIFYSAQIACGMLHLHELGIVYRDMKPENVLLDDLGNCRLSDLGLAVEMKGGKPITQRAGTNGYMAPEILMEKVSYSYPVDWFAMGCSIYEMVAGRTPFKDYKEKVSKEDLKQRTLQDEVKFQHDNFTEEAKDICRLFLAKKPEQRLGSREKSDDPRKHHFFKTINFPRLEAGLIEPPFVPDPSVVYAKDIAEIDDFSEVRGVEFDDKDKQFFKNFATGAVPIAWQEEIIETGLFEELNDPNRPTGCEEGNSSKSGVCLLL
Sequence of MLK2 (Q02779 whole entry): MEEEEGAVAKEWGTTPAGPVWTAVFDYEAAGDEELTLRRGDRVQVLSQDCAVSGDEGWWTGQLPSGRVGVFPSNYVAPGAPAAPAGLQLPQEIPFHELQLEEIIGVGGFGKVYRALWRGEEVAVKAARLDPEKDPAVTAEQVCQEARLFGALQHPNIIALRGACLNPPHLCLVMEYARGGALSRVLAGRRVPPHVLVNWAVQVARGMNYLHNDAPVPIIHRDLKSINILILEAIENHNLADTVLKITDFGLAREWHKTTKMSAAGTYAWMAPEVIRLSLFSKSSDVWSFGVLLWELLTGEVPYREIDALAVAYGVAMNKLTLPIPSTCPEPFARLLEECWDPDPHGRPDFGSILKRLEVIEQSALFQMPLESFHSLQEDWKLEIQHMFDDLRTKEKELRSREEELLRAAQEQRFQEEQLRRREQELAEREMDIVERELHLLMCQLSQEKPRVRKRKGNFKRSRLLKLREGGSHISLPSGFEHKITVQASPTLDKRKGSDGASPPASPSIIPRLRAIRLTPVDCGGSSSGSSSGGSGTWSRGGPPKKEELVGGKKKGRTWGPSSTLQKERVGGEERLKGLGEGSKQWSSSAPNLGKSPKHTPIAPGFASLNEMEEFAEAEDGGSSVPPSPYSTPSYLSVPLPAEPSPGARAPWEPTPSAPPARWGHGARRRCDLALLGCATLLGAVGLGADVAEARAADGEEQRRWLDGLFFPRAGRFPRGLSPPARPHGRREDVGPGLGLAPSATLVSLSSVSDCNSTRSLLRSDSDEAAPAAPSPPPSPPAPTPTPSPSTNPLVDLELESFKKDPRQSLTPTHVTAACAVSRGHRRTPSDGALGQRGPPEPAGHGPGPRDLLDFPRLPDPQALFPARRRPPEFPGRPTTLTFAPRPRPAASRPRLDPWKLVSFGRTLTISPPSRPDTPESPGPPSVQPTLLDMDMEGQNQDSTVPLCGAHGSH
Sequence of RIPK5 (Q6XUX3 whole entry): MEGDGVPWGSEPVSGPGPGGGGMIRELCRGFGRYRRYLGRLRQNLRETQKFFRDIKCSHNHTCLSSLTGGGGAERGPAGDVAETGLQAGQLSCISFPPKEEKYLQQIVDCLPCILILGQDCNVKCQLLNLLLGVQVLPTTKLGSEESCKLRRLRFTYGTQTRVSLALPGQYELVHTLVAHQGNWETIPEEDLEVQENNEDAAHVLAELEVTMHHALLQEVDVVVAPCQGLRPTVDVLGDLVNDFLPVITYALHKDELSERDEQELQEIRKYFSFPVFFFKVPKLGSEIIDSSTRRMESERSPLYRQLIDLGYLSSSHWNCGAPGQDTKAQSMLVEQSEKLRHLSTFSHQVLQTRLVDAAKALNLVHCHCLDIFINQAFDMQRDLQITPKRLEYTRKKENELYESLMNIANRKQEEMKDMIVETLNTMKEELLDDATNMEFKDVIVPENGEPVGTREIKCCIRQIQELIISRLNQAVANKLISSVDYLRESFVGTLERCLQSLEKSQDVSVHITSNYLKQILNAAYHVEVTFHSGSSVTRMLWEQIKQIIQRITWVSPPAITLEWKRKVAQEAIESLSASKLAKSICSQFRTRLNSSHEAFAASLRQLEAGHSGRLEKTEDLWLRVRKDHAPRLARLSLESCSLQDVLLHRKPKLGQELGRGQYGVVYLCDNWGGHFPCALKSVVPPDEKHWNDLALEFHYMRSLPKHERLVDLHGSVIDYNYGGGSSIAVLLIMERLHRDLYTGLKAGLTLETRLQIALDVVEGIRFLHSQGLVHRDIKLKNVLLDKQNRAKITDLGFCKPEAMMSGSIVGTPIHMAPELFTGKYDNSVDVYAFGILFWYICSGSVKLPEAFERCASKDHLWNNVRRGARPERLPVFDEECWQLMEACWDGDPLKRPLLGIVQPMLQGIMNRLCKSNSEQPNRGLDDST
Sequence of CAMK2G (Q13555 whole entry): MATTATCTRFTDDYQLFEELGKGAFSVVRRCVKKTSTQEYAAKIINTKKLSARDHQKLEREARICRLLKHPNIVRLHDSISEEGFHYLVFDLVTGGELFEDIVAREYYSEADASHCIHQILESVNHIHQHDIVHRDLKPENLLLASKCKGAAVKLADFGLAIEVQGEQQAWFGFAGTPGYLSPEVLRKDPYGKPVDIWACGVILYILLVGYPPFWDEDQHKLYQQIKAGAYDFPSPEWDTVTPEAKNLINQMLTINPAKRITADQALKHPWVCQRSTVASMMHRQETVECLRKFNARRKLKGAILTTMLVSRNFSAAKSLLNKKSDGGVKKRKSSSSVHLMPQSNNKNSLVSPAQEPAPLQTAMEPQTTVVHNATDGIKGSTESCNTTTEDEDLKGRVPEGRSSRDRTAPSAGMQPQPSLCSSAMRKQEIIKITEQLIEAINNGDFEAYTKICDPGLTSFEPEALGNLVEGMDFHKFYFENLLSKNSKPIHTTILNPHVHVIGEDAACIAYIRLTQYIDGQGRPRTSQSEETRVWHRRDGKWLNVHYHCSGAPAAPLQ
Sequence of CSNK1A1 (P48729 whole entry): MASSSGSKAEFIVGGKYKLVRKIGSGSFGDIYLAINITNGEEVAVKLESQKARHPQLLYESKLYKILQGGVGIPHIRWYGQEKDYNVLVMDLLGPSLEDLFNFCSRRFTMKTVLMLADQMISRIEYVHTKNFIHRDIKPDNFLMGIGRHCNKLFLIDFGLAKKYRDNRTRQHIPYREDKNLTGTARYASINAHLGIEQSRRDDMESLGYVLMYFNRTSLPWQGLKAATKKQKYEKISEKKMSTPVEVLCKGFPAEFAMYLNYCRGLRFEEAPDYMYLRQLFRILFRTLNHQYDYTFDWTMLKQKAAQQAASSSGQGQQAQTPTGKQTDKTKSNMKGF

## CN(C[C@@H](O)Cc1ccccc1)C(=O)c1cncc(C#Cc2cnn(C(F)F)c2)c1 [Example 2, (S)-5-((1-(difluoromethyl)-1H-pyrazol-4-yl)ethynyl)-N-(2-hydroxy-3-phenylpropyl)-N-methylnicotinamide]
[1]; ABL1(H396P)-nonphosphorylated
  remaining activity at 0.1 µM: 88%
[2]; ABL1(T315I)-phosphorylated
  remaining activity at 0.1 µM: 80%
[3]; ABL1-nonphosphorylated
  remaining activity at 0.1 µM: 72%
[4]; CAMK1D
  remaining activity at 0.1 µM: 100%
[5]; CAMK2G
  remaining activity at 0.1 µM: 94%
[6]; CAMKK2
  remaining activity at 0.1 µM: 99%
[7]; CSNK1A1
  remaining activity at 0.1 µM: 100%
[8]; EGFR(G719S)
  remaining activity at 0.1 µM: 100%
[9]; EPHA8
  remaining activity at 0.1 µM: 99%
[10]; EPHB3
  remaining activity at 0.1 µM: 100%
[11]; FGFR3
  remaining activity at 0.1 µM: 100%
[12]; GRK1
  remaining activity at 0.1 µM: 100%
[13]; GRK7
  remaining activity at 0.1 µM: 100%
[14]; IGFIR
  remaining activity at 0.1 µM: 100%
[15]; KIT-autoinhibited
  remaining activity at 0.1 µM: 94%
[16]; LIMK1
  remaining activity at 0.1 µM: 100%
[17]; LYN
  remaining activity at 0.1 µM: 71%
[18]; MINK
  remaining activity at 0.1 µM: 100%
[19]; MKNK1
  remaining activity at 0.1 µM: 96%
[20]; MLK2
  remaining activity at 0.1 µM: 66%
[21]; MYLK2
  remaining activity at 0.1 µM: 100%
[22]; PKN2
  remaining activity at 0.1 µM: 97%
[23]; RIPK5
  remaining activity at 0.1 µM: 100%
[24]; ROCK2
  remaining activity at 0.1 µM: 100%
[25]; STK33
  remaining activity at 0.1 µM: 88%
[26]; TNNI3K
  remaining activity at 0.1 µM: 100%
[27]; TTK
  remaining activity at 0.1 µM: 100%
[28]; ULK3
  remaining activity at 0.1 µM: 97%
[29]; ZAP70
  remaining activity at 0.1 µM: 98%

## CN(C[C@H](Cc1ccccc1)OP(=O)(O)O)C(=O)c1cncc(C#Cc2cnn(C(F)F)c2)c1 [Example 19, (S)-1-(5-((1-(difluoromethyl)-1H-pyrazol-4-yl)ethynyl)-N-methylnicotinamido)-3-phenylpropan-2-yl dihydrogen phosphate]
[1]
  remaining activity at 0.1 µM: 96%
[2]
  remaining activity at 0.1 µM: 92%
[3]
  remaining activity at 0.1 µM: 96%
[4]
  remaining activity at 0.1 µM: 74%
[5]
  remaining activity at 0.1 µM: 100%
[6]
  remaining activity at 0.1 µM: 100%
[7]
  remaining activity at 0.1 µM: 92%
[8]
  remaining activity at 0.1 µM: 72%
[9]
  remaining activity at 0.1 µM: 100%
[10]
  remaining activity at 0.1 µM: 100%
[11]
  remaining activity at 0.1 µM: 100%
[12]
  remaining activity at 0.1 µM: 98%
[13]
  remaining activity at 0.1 µM: 100%
[14]
  remaining activity at 0.1 µM: 98%
[15]
  remaining activity at 0.1 µM: 94%
[16]
  remaining activity at 0.1 µM: 100%
[17]
  remaining activity at 0.1 µM: 80%
[18]
  remaining activity at 0.1 µM: 100%
[19]
  remaining activity at 0.1 µM: 91%
[20]
  remaining activity at 0.1 µM: 69%
[21]
  remaining activity at 0.1 µM: 96%
[22]
  remaining activity at 0.1 µM: 100%
[23]
  remaining activity at 0.1 µM: 96%
[24]
  remaining activity at 0.1 µM: 100%
[25]
  remaining activity at 0.1 µM: 100%
[26]
  remaining activity at 0.1 µM: 100%
[27]
  remaining activity at 0.1 µM: 82%
[28]
  remaining activity at 0.1 µM: 96%
[29]
  remaining activity at 0.1 µM: 98%
